From patent US10206937B2, “Boronic acid derivatives and therapeutic uses thereof” (Qpex Biopharma, Inc., priority 2014, dated 2019)

Experiments:
[1] = test system: EC1064 (NDM-1, CMY-6, CTX-M-15); test: Carbapenem potentiation against clinical isolate (MIC); format: cell-based, Escherichia coli; details: antibiotic alone
KP1014 (VIM-1) = test: as above; format: cell-based, Klebsiella pneumoniae; details: antibiotic alone
AB1144 (NDM-1) = test: as above; format: cell-based, Acinetobacter baumannii; details: AB1144; antibiotic alone
KP1054 (VIM-1, SHV-11) = test: as above; format: cell-based, Klebsiella pneumoniae; details: antibiotic alone
[2] = test system: KP1074 (KPC-3, SHV-11, TEM); test: as above; format: cell-based, Klebsiella pneumoniae; details: antibiotic alone
[3] = test system: KP1087 (KPC-2, CTX-M-15, SHV-11, TEM-1); test: as above; format: cell-based; details: antibiotic alone
EA1019 (SHV-5, VIM-1) = test: as above; format: cell-based, Enterobacter aerogenes; details: EA1019; antibiotic alone
[4] = test system: strains of Enterobacteriaceae overexpressing various carbapenemases (class A and B); test: microbe, parasite or virus in culture; format: cell-based; details: carbapenem alone or + Compound 14 at fixed 4 μg/ml, read-out: MIC
Description: Several strains simultaneously expressing both class A and class B carbapenemases, which were constructed using conjugation, were also included in the panel.

[5] = test system: KP1004 (KPC-2, TEM-1, SHV-11); test: Carbapenem potentiation against clinical isolate (MIC); format: cell-based, Klebsiella pneumoniae; details: antibiotic alone
[6] = test system: KP1084 (KPC-3, SHV-11, TEM-1); test: as above; format: cell-based, Klebsiella pneumoniae; details: antibiotic alone
[7] = test system: KP1081 (NDM-1, TEM-1, SHV-11, CMY-6, CTX-M-15); test: as above; format: cell-based; details: antibiotic alone
[8] = test system: KP1086 (TEM, SHV, CTX-M-15, OXA-48); test: as above; format: cell-based, Klebsiella pneumoniae; details: antibiotic alone
[9] = test system: KP1064 (KPC-2, SHV-11, TEM-1); test: as above; format: cell-based, Klebsiella pneumoniae; details: antibiotic alone
ECM6711 (pUCP24-VIM-1) = format: cell-based, E. coli; details: VIM-1 producing strain; Compound 1 at fixed 4 μg/ml or 8 μg/ml
[10] = test system: clinical isolates expressing class A, B and D carbapenemases; test: Carbapenem potentiation by Compound 1, whole panel of clinical isolates (MIC); format: cell-based; details: Compound 1 at fixed 5 μg/ml in the growth media; all the strains
Description: The results are present in Table 8.

VIM-1 = molecular target: T1, VIM-1 (Pseudomonas aeruginosa, UniProt A0A0F7KYQ8); test: biochemical; details: cleavage of nitrocefin (200 uM) by VIM-1 supernatant
T1 construct: made in house; host or cells: ECM6711 strain carrying pUCP24-VIM-1 plasmid; culture supernatant used unpurified

[11] = molecular target: T2, purified class A, C and D enzymes (UniProt Q9F663); format: biochemical; details: read-out: Ki (KPC-2, NCF); purified KPC-2; nitrocefin reporter substrate
T2 construct: rows headed: Ki (KPC-2, NCF); other: purified KPC-2; nitrocefin reporter substrate

NDM-1 [12] = molecular target: T3, NDM-1 (Klebsiella pneumoniae, UniProt C7C422); test: Inhibition of purified class B carbapenemase NDM-1 (Ki, imipenem substrate); format: biochemical
T3 sequence (C7C422 29-270, looked up, species assumed): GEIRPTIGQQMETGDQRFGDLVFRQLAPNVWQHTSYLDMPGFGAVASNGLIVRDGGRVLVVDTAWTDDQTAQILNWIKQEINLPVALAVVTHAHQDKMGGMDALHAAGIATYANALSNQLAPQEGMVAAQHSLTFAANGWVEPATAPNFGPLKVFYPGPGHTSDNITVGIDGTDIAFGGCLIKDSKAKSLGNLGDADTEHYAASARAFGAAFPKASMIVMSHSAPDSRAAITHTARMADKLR

ECM6703 (pUCP24-NDM-1) = format: cell-based, E. coli; details: NDM-1 producing strain; Compound 1 at fixed 4 μg/ml or 8 μg/ml
NDM-1 [13] = molecular target: T3, NDM-1; test: biochemical

C[C@@H](O)[C@H]1C(=O)N2C(C(=O)O)=C(S[C@@H]3CN[C@H](C(=O)N(C)C)C3)[C@H](C)[C@H]12 [Meropenem, reference compound]
Carbapenem MIC Alone [1]: Z (MIC of greater than 10 μg/mL) | Carbapenem MIC Alone (KP1014 (VIM-1)): Y (MIC of 1 μg/mL to 10 μg/mL) | Carbapenem MIC Alone (AB1144 (NDM-1)): Z (MIC of greater than 10 μg/mL) | Carbapenem MIC Alone (KP1054 (VIM-1, SHV-11)): Z (MIC of greater than 10 μg/mL) | Carbapenem MIC Alone [2]: Z (MIC of greater than 10 μg/mL) | Carbapenem MIC Alone [3]: Z (MIC of greater than 10 μg/mL) | Carbapenem MIC Alone (EA1019 (SHV-5, VIM-1)): Z (MIC of greater than 10 μg/mL) | MIC ([4]; Enterobacter cloacae, strain ECL1026, Enterobacter cloacae (KPC)): 1 to 10 µg/mL | MIC ([4]; Enterobacter cloacae, strain ECL1036, Enterobacter cloacae (KPC)): 1 to 10 µg/mL | MIC ([4]; Enterobacter cloacae, strain ECL1045, Enterobacter cloacae (VIM-1)): 1 to 10 µg/mL | MIC ([4]; Enterobacter cloacae, strain ECL1055, Enterobacter cloacae (KPC)): 1 to 10 µg/mL | MIC ([4]; Enterobacter cloacae, strain ECL1057, Enterobacter cloacae (NDM-1, TEM-1, CTX-M-15)): > 10 µg/mL | MIC ([4]; Enterobacter cloacae, strain ECL1082, Enterobacter cloacae (VIM-1)): 1 to 10 µg/mL | MIC ([4]; Enterobacter cloacae, strain ECLM1013, Enterobacter cloacae (NDM, KPC)): > 10 µg/mL | MIC ([4]; Enterobacter cloacae, strain ECLM1014, Enterobacter cloacae (NDM, KPC)): > 10 µg/mL | MIC ([4]; Enterobacter cloacae, strain ECLM1015, Enterobacter cloacae (NDM, KPC)): > 10 µg/mL | MIC ([4]; Enterobacter cloacae, strain ECLM1016, Enterobacter cloacae (NDM, KPC)): > 10 µg/mL | MIC ([4]; Enterobacter cloacae, strain ECLM1017, Enterobacter cloacae (VIM, KPC)): > 10 µg/mL | MIC ([4]; Enterobacter cloacae, strain ECLM1018, Enterobacter cloacae (VIM, KPC)): > 10 µg/mL | MIC ([4]; Enterobacter cloacae, strain ECLM1019, Enterobacter cloacae (VIM, KPC)): > 10 µg/mL | MIC ([4]; Escherichia coli, strain EC1064, Escherichia coli (NDM-1, CMY-6, CTX-M-15)): > 10 µg/mL | MIC ([4]; Escherichia coli, strain EC1068, Escherichia coli (VIM-1)): > 10 µg/mL | MIC ([4]; Klebsiella aerogenes, strain EA1019, Enterobacter aerogenes (SHV-5, VIM-1)): > 10 µg/mL | MIC ([4]; Klebsiella pneumoniae, strain KP1004, Klebsiella pneumoniae (KPC TEM SHV)): > 10 µg/mL | MIC ([4]; Klebsiella pneumoniae, strain KP1014, Klebsiella pneumoniae (Vim-1, TEM, SHV)): > 10 µg/mL | MIC ([4]; Klebsiella pneumoniae, strain KP1061, Klebsiella pneumoniae (KPC TEM SHV)): 1 to 10 µg/mL | MIC ([4]; Klebsiella pneumoniae, strain KP1064, Klebsiella pneumoniae (KPC TEM SHV)): > 10 µg/mL | MIC ([4]; Klebsiella pneumoniae, strain KP1070, Klebsiella pneumoniae (KPC TEM SHV)): > 10 µg/mL | MIC ([4]; Klebsiella pneumoniae, strain KP1084, Klebsiella pneumoniae (KPC-3, SHV-11, TEM-1)): > 10 µg/mL | MIC ([4]; Klebsiella pneumoniae, strain KP1097, Klebsiella pneumoniae (IMP-1 SHV)): > 10 µg/mL | MIC ([4]; Klebsiella pneumoniae, strain KP1098, Klebsiella pneumoniae (IMP-26 TEM SHV)): > 10 µg/mL | MIC ([4]; Klebsiella pneumoniae, strain KPM1097, Klebsiella pneumoniae (NDM, KPC)): > 10 µg/mL | MIC ([4]; Klebsiella pneumoniae, strain KPM1099, Klebsiella pneumoniae (NDM, KPC)): > 10 µg/mL | MIC ([4]; Klebsiella pneumoniae, strain KPM1107, Klebsiella pneumoniae (NDM, KPC)): > 10 µg/mL | MIC ([4]; Klebsiella pneumoniae, strain KPM1108, Klebsiella pneumoniae (NDM, KPC)): > 10 µg/mL | MIC ([4]; Klebsiella pneumoniae, strain KPM1123, Klebsiella pneumoniae (KPC-2 TEM SHV)): > 10 µg/mL | MIC ([4]; Klebsiella pneumoniae, strain KPM1344, Klebsiella pneumoniae (VIM-1)): > 10 µg/mL | MIC ([4]; Klebsiella pneumoniae, strain KPM1346, Klebsiella pneumoniae (NDM-1 TEM SHV CTX-M-15 CMY)): > 10 µg/mL | MIC ([4]; Klebsiella pneumoniae, strain KPM1347, Klebsiella pneumoniae (NDM-1 SHV CTX-M-15)): > 10 µg/mL | MIC ([4]; strain EC1065, Escherichai coli (IMP-1 CMY-2)): 1 to 10 µg/mL | Carbapenem MIC Alone [5]: Y (MIC of 1 μg/mL to 10 μg/mL) | Carbapenem MIC Alone [6]: Z (MIC of greater than 10 μg/mL) | Carbapenem MIC Alone [7]: Z (MIC of greater than 10 μg/mL) | Carbapenem MIC Alone [8]: Z (MIC of greater than 10 μg/mL) | Carbapenem MIC Alone [9]: Z (MIC of greater than 10 μg/mL)

O=C(O)c1cccc2c1OB(O)[C@@H](Sc1nncs1)C2 [Compound 1, (R)-3-(1,3,4-thiadiazol-2-ylthio)-2-hydroxy-3,4-dihydro-2H-benzo[e][1,2]oxaborinine-8-carboxylic acid]
imipenem MIC in the presence of Compound 1 (ECM6711 (pUCP24-VIM-1)): decreased to the level of the strain containing empty vector | carbapenem MIC (biapenem, doripenem, imipenem, meropenem) [10]: significantly reduced | IC50 (VIM-1): < 1000 nM | Ki [11]: 100 to 1000 nM | Ki (NDM-1 [12]): 10 to 100 nM | imipenem MIC in the presence of Compound 1 (ECM6703 (pUCP24-NDM-1)): decreased to the level of the strain containing empty vector | Ki (NDM-1 [13]; Ki, Imipenem): 10 to 100 nM | Ki (NDM-1 [13]; cleavage of biapenem (100 uM) by NDM-1, read-out: Ki, Biapenem): 10 to 100 nM | Ki (NDM-1 [13]; cleavage of meropenem (100 uM) by NDM-1, read-out: Ki, Meropenem): 10 to 100 nM | Ki (NDM-1 [13]; cleavage of tebipenem (100 uM) by NDM-1, read-out: Ki, Tebipenem): > 100 nM

C[C@@H](O)[C@H]1C(=O)N2C(C(=O)O)=C(S[C@@H]3CN[C@H](CNS(N)(=O)=O)C3)[C@H](C)[C@H]12 [Doripenem]
Carbapenem MIC Alone [1]: Z (MIC of greater than 10 μg/mL) | Carbapenem MIC Alone (KP1014 (VIM-1)): Z (MIC of greater than 10 μg/mL) | Carbapenem MIC Alone (AB1144 (NDM-1)): Z (MIC of greater than 10 μg/mL) | Carbapenem MIC Alone (KP1054 (VIM-1, SHV-11)): Z (MIC of greater than 10 μg/mL) | Carbapenem MIC Alone [2]: Z (MIC of greater than 10 μg/mL) | Carbapenem MIC Alone [3]: Z (MIC of greater than 10 μg/mL) | Carbapenem MIC Alone (EA1019 (SHV-5, VIM-1)): Z (MIC of greater than 10 μg/mL) | Carbapenem MIC Alone [5]: Y (MIC of 1 μg/mL to 10 μg/mL) | Carbapenem MIC Alone [6]: Z (MIC of greater than 10 μg/mL) | Carbapenem MIC Alone [7]: Z (MIC of greater than 10 μg/mL) | Carbapenem MIC Alone [8]: Z (MIC of greater than 10 μg/mL) | Carbapenem MIC Alone [9]: Z (MIC of greater than 10 μg/mL)
